Measured values reported in patent US9809574B2, “Isoindoline or isoquinoline compounds, a process for their preparation and pharmaceutical compositions containing them” (LES LABORATOIRES SERVIER, priority 2013, dated 2017).
Structures can show the parent of a compound that is named as a salt.

Legend:
[1] = tested on: RS4; 11 leukaemia cell line; experiment: In vitro cytotoxicity, Microculture Tetrazolium Assay (MTT); type: cell-based; conditions: Homo sapiens, 11 cells exposed for 48 hours
Method: The cytotoxicity studies were carried out on the RS4; 11 leukaemia cell line and on H146 small Cell Lung Carcinoma cell line. The cells are distributed onto microplates and exposed to the test compounds for 48 hours. The cell viability is then quantified by a colorimetric assay, the Microculture Tetrazolium Assay (Cancer Res., 1987, 47, 939-942).

Bcl-2 protein = Bcl-2 protein (histag-Bcl-2, UniProtKB P10415) (Homo sapiens (Human), UniProt P10415); experiment: Inhibition of Bcl-2 by the fluorescence polarisation technique; type: binding; conditions: fluorescence polarisation test; incubation for 2 hours; read-out: IC50 (nM) Bcl-2 FP
From the text: For partial inhibitors, the percentage fluorescence polarisation inhibition for a given concentration of the test compound is indicated.

Bcl-2 protein, sequence (P10415 whole entry): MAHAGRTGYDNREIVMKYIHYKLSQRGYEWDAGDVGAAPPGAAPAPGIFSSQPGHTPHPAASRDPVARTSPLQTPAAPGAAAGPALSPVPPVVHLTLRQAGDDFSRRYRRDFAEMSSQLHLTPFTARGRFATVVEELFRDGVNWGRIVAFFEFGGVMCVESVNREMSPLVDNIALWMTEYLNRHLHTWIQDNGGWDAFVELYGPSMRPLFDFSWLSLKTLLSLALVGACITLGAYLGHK

Structure (SMILES) | IC50 [1] | IC50 (Bcl-2 protein)
CN(C(=O)c1cc(-c2cc3c(cc2C(=O)N2Cc4ccccc4C[C@H]2CN2CCOCC2)CN(S(=O)(=O)CCc2ccccc2)C3)n2c1CCCC2)c1ccc(O)cc1 [Example 21, N-(4-Hydroxyphenyl)-N-methyl-3-{6-[(3S)-3-(morpholin-4-ylmethyl)-1,2,3,4-tetrahydroisoquinoline-2-carbonyl]-2-(2-phenylethanesulfonyl)-2,3-dihydro-1H-isoindol-5-yl}-5,6,7,8-tetrahydroindolizine-1-carboxamide hydrochloride] | 112 nM | 14 nM
CNC(=O)N1CCc2cc(-c3cc(C(=O)N(C)c4ccc(O)cc4)c4n3CCCC4)c(C(=O)N3Cc4ccccc4C[C@H]3C)cc2C1 [Example 79, 6-{1-[(4-Hydroxyphenyl)(methyl)carbamoyl]-5,6,7,8-tetrahydroindolizin-3-yl}-N-methyl-7-[(3R)-3-methyl-1,2,3,4-tetrahydroisoquinoline-2-carbonyl]-1,2,3,4-tetrahydroisoquinoline-2-carboxamide] | > 150 nM | 5.6 nM
Cc1ccc(CC(=O)N2CCc3cc(-c4cc(C(=O)N(C)c5ccc(O)cc5)c5n4CCCC5)c(C(=O)N4Cc5ccccc5C[C@H]4C)cc3C2)cc1 [Example 54, N-(4-Hydroxyphenyl)-N-methyl-3-{7-[(3R)-3-methyl-1,2,3,4-tetrahydroisoquinoline-2-carbonyl]-2-[2-(4-methylphenyl)acetyl]-1,2,3,4-tetrahydroisoquinolin-6-yl}-5,6,7,8-tetrahydroindolizine-1-carboxamide] | 2.4 nM | 4 nM
CN(C(=O)c1cc(-c2cc3c(cc2C(=O)N2Cc4ccccc4C[C@H]2CN2CCOCC2)CN(C(=O)Oc2ccc(C#N)cc2)CC3)n2c1CCCC2)c1ccc(O)cc1 [Example 127, 4-Cyanophenyl 6-{1-[(4-hydroxyphenyl)(methyl)carbamoyl]-5,6,7,8-tetrahydroindolizin-3-yl}-7-[(3S)-3-(morpholin-4-ylmethyl)-1,2,3,4-tetrahydroisoquinoline-2-carbonyl]-1,2,3,4-tetrahydroisoquinoline-2-carboxylate] | 6.4 nM | 3.3 nM
COc1cccc(/C=C/C(=O)N2CCc3cc(-c4cc(C(=O)N(C)c5ccc(O)cc5)c(C)n4C)c(C(=O)N4Cc5ccccc5C[C@H]4CN4CCOCC4)cc3C2)c1 [Example 136, N-(4-Hydroxyphenyl)-5-{2-[(2E)-3-(3-methoxyphenyl)prop-2-enoyl]-7-[(3S)-3-(morpholin-4-ylmethyl)-1,2,3,4-tetrahydroisoquinoline-2-carbonyl]-1,2,3,4-tetrahydroisoquinolin-6-yl}-N,1,2-trimethyl-1H-pyrrole-3-carboxamide] | 24 nM | 6.7 nM
C[C@@H]1Cc2ccccc2CN1C(=O)c1cc2c(cc1-c1cc(C(=O)N(C)c3ccc(O)cc3)c3n1CCCC3)CN(C(=O)COc1cccc(Cl)c1)C2 [Example 50, 3-{2-[2-(3-Chlorophenoxy)acetyl]-6-[(3R)-3-methyl-1,2,3,4-tetrahydroisoquinoline-2-carbonyl]-2,3-dihydro-1H-isoindol-5-yl}-N-(4-hydroxyphenyl)-N-methyl-5,6,7,8-tetrahydroindolizine-1-carboxamide] | 26 nM | 18 nM
CN(C(=O)c1cc(-c2cc3c(cc2C(=O)N2Cc4ccccc4C[C@H]2CN2CCOCC2)CNCC3)n2c1CCCC2)c1ccc(O)cc1 [Example 2, N-(4-Hydroxyphenyl)-N-methyl-3-{7-[(3S)-3-(morpholin-4-ylmethyl)-1,2,3,4-tetrahydroisoquinoline-2-carbonyl]-1,2,3,4-tetrahydroisoquinolin-6-yl}-5,6,7,8-tetrahydroindolizine-1-carboxamide dihydrochloride] | > 1880 nM | 397 nM
C[C@@H]1Cc2ccccc2CN1C(=O)c1cc2c(cc1-c1cc(C(=O)N(C)c3ccc(O)cc3)c3n1CCCC3)CCN(C(=O)c1ccccc1)C2 [Example 35, 3-{2-Benzoyl-7-[(3R)-3-methyl-1,2,3,4-tetrahydroisoquinoline-2-carbonyl]-1,2,3,4-tetrahydroisoquinolin-6-yl}-N-(4-hydroxyphenyl)-N-methyl-5,6,7,8-tetrahydroindolizine-1-carboxamide] | 8.5 nM | 4.7 nM
C[C@@H]1Cc2ccccc2CN1C(=O)c1cc2c(cc1-c1cc(C(=O)N(C)c3ccc(O)cc3)c3n1CCCC3)CCN(C(=O)Cc1ccc(NCCN(C)C)cc1)C2 [Example 108, 3-{2-[2-(4-{[2-(Dimethylamino)ethyl]amino}phenyl)acetyl]-7-[(3R)-3-methyl-1,2,3,4-tetrahydroisoquinoline-2-carbonyl]-1,2,3,4-tetrahydroisoquinolin-6-yl}-N-(4-hydroxyphenyl)-N-methyl-5,6,7,8-tetrahydroindolizine-1-carboxamide hydrochloride] | 15 nM | 2.7 nM
Cc1c(C(=O)N(C)c2ccc(O)cc2)cc(-c2cc3c(cc2C(=O)N2Cc4ccccc4C[C@H]2C)CN(C(=O)Oc2ccccc2)CC3)n1C [Example 68, Phenyl 6-{4-[(4-hydroxyphenyl)(methyl)carbamoyl]-1,5-dimethyl-1H-pyrrol-2-yl}-7-[(3R)-3-methyl-1,2,3,4-tetrahydroisoquinoline-2-carbonyl]-1,2,3,4-tetrahydroisoquinoline-2-carboxylate] | 1.8 nM | 2.9 nM
CCCN(C(=O)c1cc(-c2cc3c(cc2C(=O)N2Cc4ccccc4C[C@H]2CN2CCOCC2)CN(C(=O)Oc2ccccc2)CC3)n(C)c1C)c1ccc(O)cc1 [Example 186, Phenyl 6-{4-[(4-hydroxyphenyl)(propyl)carbamoyl]-1,5-dimethyl-1H-pyrrol-2-yl}-7-[(3S)-3-(morpholin-4-ylmethyl)-1,2,3,4-tetrahydroisoquinoline-2-carbonyl]-1,2,3,4-tetrahydroisoquinoline-2-carboxylate] | 4.5 nM | 2.5 nM
Cc1c(C(=O)N(C)c2ccc(O)cc2)cc(-c2cc3c(cc2C(=O)N2Cc4ccccc4C[C@H]2C)CN(C(=O)Oc2ccc(Cl)cc2)C3)n1C [Example 105, 4-Chlorophenyl 5-{4-[(4-hydroxyphenyl)(methyl)carbamoyl]-1,5-dimethyl-1H-pyrrol-2-yl}-6-[(3R)-3-methyl-1,2,3,4-tetrahydroisoquinoline-2-carbonyl]-2,3-dihydro-1H-isoindole-2-carboxylate] | 31 nM | 7.3 nM
CN(C(=O)c1cc(-c2cc3c(cc2C(=O)N2Cc4ccccc4C[C@H]2CN2CCOCC2)CN(C(=O)Cc2ccccc2)CC3)n2c1CCCC2)c1ccc(O)cc1 [Example 70, N-(4-Hydroxyphenyl)-N-methyl-3-{7-[(3S)-3-(morpholin-4-ylmethyl)-1,2,3,4-tetrahydroisoquinoline-2-carbonyl]-2-(2-phenylacetyl)-1,2,3,4-tetrahydroisoquinolin-6-yl}-5,6,7,8-tetrahydroindolizine-1-carboxamide] | 9.8 nM | 5.1 nM
Cc1c(C(=O)N(C)c2ccc(O)cc2)cc(-c2cc3c(cc2C(=O)N2Cc4ccccc4C[C@H]2CN2CCOCC2)CN(C(=O)Oc2ccccc2)CC3)n1C [Example 88, Phenyl 6-{4-[(4-hydroxyphenyl)(methyl)carbamoyl]-1,5-dimethyl-1H-pyrrol-2-yl}-7-[(3S)-3-(morpholin-4-ylmethyl)-1,2,3,4-tetrahydroisoquinoline-2-carbonyl]-1,2,3,4-tetrahydroisoquinoline-2-carboxylate hydrochloride] | 3.9 nM | 3.5 nM
